Measurements reported in the NIST ThermoML archive (doi:10.1016/j.jct.2007.06.002).
Where “and” joins values, the source holds several entries; their conditions need not be identical. Equal values may be shown once.

Legend:
[1] = xn = mol fraction of the nth substance listed; settings: 101 kPa, Liquid
[2] = refractive index (Na D-line) (dimensionless); xn = mol fraction of the nth substance listed; settings: 298.15 K, 101 kPa, Liquid
[3] = 101 kPa, Liquid
[4] = refractive index (Na D-line) (dimensionless); settings: 298.15 K; 101.33 kPa; Liquid

COCCOCCOC [2,5,8-trioxanonane] + CCCCn1cc[n+](C)c1.F[P-](F)(F)(F)(F)F
mass density [kg/m3], [1]
Settings | 298.15 K | 308.15 K | 318.15 K
x2 = 0 | 939.1 | 929.6 | 919.3
x2 = 0.0039 | 942.16 | 932.57 | 922.34
x2 = 0.0076 | 945.03 | 935.37 | 925.2
x2 = 0.0127 | 948.97 | 939.22 | 929.13
x2 = 0.0304 | 962.27 | 952.3 | 942.43
x2 = 0.0505 | 976.74 | 966.73 | 957.03
x2 = 0.1003 | 1010.23 | 1000.46 | 990.93
x2 = 0.1617 | 1047.81 | 1038.53 | 1028.98
x2 = 0.207 | 1073.6 | 1064.59 | 1055.02
x2 = 0.3024 | 1124.55 | 1115.44 | 1106.04
x2 = 0.4018 | 1173.96 | 1164.58 | 1155.65
x2 = 0.5023 | 1219.47 | 1210.5 | 1202.05
x2 = 0.5623 | 1243.6 | 1235.27 | 1226.97
x2 = 0.7197 | 1292.24 | 1286.05 | 1277.69
x2 = 0.9477 | 1345.16 | 1336.93 | 1328.47
x2 = 0.9842 | 1359.24 | 1351.31 | 1342.85
x2 = 0.9952 | 1365.36 | 1356.87 | 1348.47

[2]
Settings | refractive index
x2 = 0 | 1.4058
x2 = 0.0039 | 1.4063
x2 = 0.0076 | 1.4065
x2 = 0.0127 | 1.407
x2 = 0.0304 | 1.4081
x2 = 0.0505 | 1.4092
x2 = 0.1003 | 1.4113
x2 = 0.1617 | 1.4141
x2 = 0.207 | 1.4149
x2 = 0.3024 | 1.4148
x2 = 0.4018 | 1.4142
x2 = 0.5023 | 1.4138
x2 = 0.5623 | 1.4123
x2 = 0.7197 | 1.4098
x2 = 0.9477 | 1.4094
x2 = 0.9842 | 1.4089

COCCO [2-methoxyethan-1-ol]
[3]
Settings | mass density [kg/m3]
298.15 K | 960.05
308.15 K | 950.81
318.15 K | 941.45

Settings | refractive index
[4] | 1.4004

CCCCn1cc[n+](C)c1.F[P-](F)(F)(F)(F)F [1-butyl-3-methylimidazolium hexafluorophosphate] + COCCOC
[1], x1 = 1
Settings | mass density [kg/m3]
298.15 K | 1367.88
308.15 K | 1359.33
318.15 K | 1350.87

Settings | refractive index
[2], x1 = 1 | 1.4089

CCCCn1cc[n+](C)c1.F[P-](F)(F)(F)(F)F [1-butyl-3-methylimidazolium hexafluorophosphate]
[3]
Settings | mass density [kg/m3]
298.15 K | 1367.88
308.15 K | 1359.33
318.15 K | 1350.87

Settings | refractive index
[4] | 1.4089 and 1.4058

CCCCn1cc[n+](C)c1.F[P-](F)(F)(F)(F)F [1-butyl-3-methylimidazolium hexafluorophosphate] + COCCOCCOC
[1], x1 = 1
Settings | mass density [kg/m3]
298.15 K | 1367.88
308.15 K | 1359.33
318.15 K | 1350.87

Settings | refractive index
[2], x1 = 1 | 1.4058

COCCO [2-methoxyethan-1-ol] + CCCCn1cc[n+](C)c1.F[P-](F)(F)(F)(F)F
[1], x2 = 0
Settings | mass density [kg/m3]
298.15 K | 960.05
308.15 K | 950.81
318.15 K | 941.45

Settings | refractive index
[2], x2 = 0 | 1.4004

CCCCn1cc[n+](C)c1.F[P-](F)(F)(F)(F)F [1-butyl-3-methylimidazolium hexafluorophosphate] + COCCO
mass density [kg/m3], [1]
Settings | 298.15 K | 308.15 K | 318.15 K
x1 = 0.0037 | 964.55 | 962.53 | 945.96
x1 = 0.0078 | 969.43 | 967.34 | 950.88
x1 = 0.012 | 974.36 | 972.19 | 955.82
x1 = 0.0354 | 1000.13 | 997.66 | 981.7
x1 = 0.0801 | 1042.78 | 1039.97 | 1024.48
x1 = 0.1468 | 1094.24 | 1091.12 | 1076.09
x1 = 0.2542 | 1157.35 | 1153.41 | 1139.53
x1 = 0.396 | 1219.08 | 1213.6 | 1201.72
x1 = 0.6104 | 1284.64 | 1277.88 | 1267.48
x1 = 0.8127 | 1328.13 | 1320.65 | 1311.1
x1 = 0.8961 | 1344.77 | 1336.68 | 1327.9
x1 = 0.9345 | 1352.85 | 1344.49 | 1336
x1 = 0.9749 | 1361.9 | 1353.35 | 1344.99
x1 = 1 | 1367.88 | 1359.33 | 1350.87

[2]
Settings | refractive index
x1 = 0.0037 | 1.4006
x1 = 0.0078 | 1.401
x1 = 0.012 | 1.4013
x1 = 0.0354 | 1.403
x1 = 0.0801 | 1.405
x1 = 0.1468 | 1.4065
x1 = 0.2542 | 1.4078
x1 = 0.396 | 1.4083
x1 = 0.6104 | 1.4086
x1 = 0.8127 | 1.4086
x1 = 0.8961 | 1.4089
x1 = 0.9345 | 1.409
x1 = 0.9749 | 1.409
x1 = 1 | 1.4089

COCCOCCOC [2,5,8-trioxanonane]
[3]
Settings | mass density [kg/m3]
298.15 K | 939.1
308.15 K | 929.6
318.15 K | 919.3

Settings | refractive index
[4] | 1.4058

COCCOC [1,2-dimethoxyethane] + CCCCn1cc[n+](C)c1.F[P-](F)(F)(F)(F)F
mass density [kg/m3], [1]
Settings | x2 = 0 | x2 = 0.0125 | x2 = 0.0416 | x2 = 0.1055 | x2 = 0.1219 | x2 = 0.2474 | x2 = 0.3744 | x2 = 0.4937 | x2 = 0.7092 | x2 = 0.9329
298.15 K | 864.47 | 879.28 | 912.09 | 976.53 | 991.51 | 1089.14 | 1164.22 | 1219.89 | 1296.36 | 1353.78
308.15 K | 853.47 | 868.36 | 901.37 | 966.23 | 981.31 | 1079.57 | 1155.09 | 1211.03 | 1287.72 | 1345.27
318.15 K | 842.27 | 857.25 | 890.47 | 955.79 | 971 | 1069.97 | 1145.98 | 1202.22 | 1279.25 | 1336.85

[2]
Settings | refractive index
x2 = 0 | 1.379
x2 = 0.0041 | 1.3781
x2 = 0.0125 | 1.3798
x2 = 0.0416 | 1.3859
x2 = 0.1055 | 1.3926
x2 = 0.1219 | 1.3941
x2 = 0.2474 | 1.4009
x2 = 0.3744 | 1.4043
x2 = 0.4937 | 1.4062
x2 = 0.7092 | 1.4076
x2 = 0.9329 | 1.4087

COCCOC [1,2-dimethoxyethane]
[3]
Settings | mass density [kg/m3]
298.15 K | 864.47
308.15 K | 853.47
318.15 K | 842.27

Settings | refractive index
[4] | 1.379
